# In patent US12391683B2, “Therapeutic compounds and methods” (Actio Biosciences, Inc., priority 2022, dated 2025):
# Target: Human TRPV4 (Homo sapiens, UniProt Q9HBA0)
# Assay: TRPV4 calcium flux assay (FLIPR, antagonist mode)
# Assay type: cell-based
# Set-up: HiBiT (inferred from the expression read-out); host or cells: HEK293T
# Conditions: HEK293T cells transfected with hTRPV4; antagonist mode vs EC80 of TRPV4 agonist; average of at least 3 separate experiments; read-out: Human TRPV4 Ca2+ Assay IC50
# Experimental: Example 23. TRPV4 Calcium Assay Methods
# Human embryonic kidney 293T (HEK293T/293T) cells are cultured in complete media (Dulbecco's Modified Eagle Medium (DMEM), containing 10% fetal bovine serum (FBS) and 1× penicillin-streptomycin) in a T-75 tissue culture flask. At 90% confluency, cells are detached using TrypLE™ Express cell dissociation buffer. TrypLE™ Express buffer is neutralized by adding culture media in excess. Cells are gently triturated and counted using trypan blue in a Countess 3 automated cell counter. Cells are transferred to a 50 mL conical tube and spun down at 1000 rotations per minute (RPM) for five minutes in a benchtop centrifuge. Media containing detaching enzyme is aspirated off the pellet, followed by resuspension to the desired concentration of 2×10^6 cells per mL in complete DMEM.
# Transfection preparations were scaled using a combination of 6 μg of TRPV4 wild-type or mutant plasmid DNA, 36 μL of Fugene6 transfection reagent, and 1000 μL of OptiMEM media for every 2×10^6 cells needed. The transfection mix is left to incubate for 20 minutes at room temperature. Total seeding mixture (1000 μL 2×10^6 cells, 1000 μL transfection mix previously described, and 1000 μL complete DMEM) for one transfection is combined into a 15 mL conical tube. The cells and transfection plasmid are mixed thoroughly and dispensed into a reservoir. This is plated at 25 μL per well in a black 384, black-well, clear-bottom, tissue-culture treated plate. This yields approximately 16,000 cells per well. Plasmid DNA constructs were designed by Actio Biosciences in conjunction with Genscript, and generated by Genscript, for all hTRPV4 wild-type and hTRPV4 P/LP (ClinVar) mutations (G78W, P82S, T891, P97R, R186Q, R232C, R232P, R237G, R237Q, R237 L, R269C, R269H, R269S, G270V, R271P, F273 L, K276E, E278K, G280S, Y281S, R315G, R315W, R316C, R316H, R316 L, R316S, I331F, D333G, S403T, K403T, K407E, S542P, S542Y, L543R, Y591N, R594C, R594H, R594S, G600E, Y602C, R616Q, F617 L, L618P, V6201, A716S, A716T, L735R, T740I, R775K, W785R, E797D, E797K, P799A, P799R, P799S, P799 L, G800D, K801E, P827H, F471del, N797del). The remaining cells are plated in the same manner, in a 384, white-well, clear-bottom, tissue-culture treated plate for expression and relative cell number determination. Plates are placed in the incubator at 37° C. overnight.
# Compounds were brought to 10 mM in DMSO. DMSO concentration was kept constant throughout the dilution of any compound. DMSO negative control and concentration-response curves were nanoliter-spotted via PICO8 automated dispenser at 5× test concentration into a 384w clear polypropylene plate containing 1×HBSS+20 mM HEPES buffer. A predetermined concentration equivalent to the EC80 of TRPV4 agonist on hTRPV4 was prepared at 6× in 1×HBSS+20 mM HEPES and loaded into a separate 384-well v-bottom polypropylene plate.
# Approximately 18 hours post-transfection, the cell plates were removed from the incubator and equal volume (25 uL) Calcium 6 dye was gently added. Calcium 6 dye containing probenecid (final 5 mM) was prepared per manufacturer's instructions. Cell plate was returned to the incubator for 1 hour, at 37° C.
# FLIPR Penta was programmed to add compound using the following settings • Pipettor Head=384 • Read Mode 1 Excitation Wavelength=470_495 • Read Mode 1 Emission Wavelength=515_575 • Read Mode 1 Exposure=0.1000 • Read Mode 1 Gain=6.50 • Read Mode 1 Excitation Intensity=20 • Volume of addition=12.5 μL • Height=40 μL • Speed=15 μL/second
# Raw data was exported and analyzed for maximum signal (RFU) after agonist addition—the average baseline (RFU) in the first 15 seconds per well. Data was plotted in GraphPad Prism to determine EC50 or IC50 of the molecules.
# Chain of Human TRPV4 (Q9HBA0 whole entry): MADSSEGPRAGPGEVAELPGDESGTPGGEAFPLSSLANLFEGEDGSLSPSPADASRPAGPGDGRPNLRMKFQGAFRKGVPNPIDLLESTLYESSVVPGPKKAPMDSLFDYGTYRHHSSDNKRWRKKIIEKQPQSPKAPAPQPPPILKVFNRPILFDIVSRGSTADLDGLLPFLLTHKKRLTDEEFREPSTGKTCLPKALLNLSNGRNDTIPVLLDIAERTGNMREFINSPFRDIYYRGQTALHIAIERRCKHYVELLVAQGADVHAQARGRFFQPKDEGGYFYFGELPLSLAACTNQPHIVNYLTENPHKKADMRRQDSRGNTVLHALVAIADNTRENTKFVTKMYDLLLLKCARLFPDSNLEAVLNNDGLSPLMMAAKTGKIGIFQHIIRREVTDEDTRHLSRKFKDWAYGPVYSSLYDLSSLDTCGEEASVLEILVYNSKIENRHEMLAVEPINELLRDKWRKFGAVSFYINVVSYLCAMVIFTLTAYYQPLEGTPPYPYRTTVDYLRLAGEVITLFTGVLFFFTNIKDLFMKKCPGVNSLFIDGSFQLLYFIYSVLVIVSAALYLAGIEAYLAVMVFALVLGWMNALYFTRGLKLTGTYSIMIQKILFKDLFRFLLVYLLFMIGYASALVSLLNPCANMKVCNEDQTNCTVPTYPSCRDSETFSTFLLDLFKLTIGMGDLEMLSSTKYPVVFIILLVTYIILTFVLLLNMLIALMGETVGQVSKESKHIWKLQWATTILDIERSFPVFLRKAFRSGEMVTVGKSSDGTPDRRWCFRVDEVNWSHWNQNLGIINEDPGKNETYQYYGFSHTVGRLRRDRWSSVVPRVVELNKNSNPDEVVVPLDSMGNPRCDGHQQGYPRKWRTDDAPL
compound,measurement,value
"CC(C)(O)c1cnc(N2C[C@@]3(CC[C@@H](F)[C@](C)(Cn4cnc5ccc(C#N)cc54)C3)OC2=O)cn1 (single isomer, unassigned) [Example 5]",IC50,13 nM
